Test results published in patent US20110077263A1, “Methods and Compositions of Toll-Like Receptor (TLR) Agonists” (priority 2009, published 2011).

How the values were obtained:
[1] = cited from earlier work
TLR7 and/or TLR8 = conditions: cited from earlier work
LC exposed to HPV16 VLP [2] = test: Transwell migration assay toward CCL21; format: cell-based, human; conditions: then treated, 250 ng/ml CCL21, 3 h
Description: LC, HPV16 VLP-exposed LC, or HPV16 VLP-exposed LC treated with each of the imidazoquinolines, using the same concentrations as stated in the imidazoquinoline activation assay, to the upper chambers. The plates were incubated for 3 h at 37° C. Cells that migrated to the lower chamber were counted, and migration was calculated as the ratio of cells that migrated with/without CCL21.

DC = test: Imidazoquinoline activation assay on DC, surface markers by flow cytometry; format: cell-based, human
[3] = tested on: LC exposed to HPV16 cVLP with autologous CD8+ T cells; format: cell-based, human; conditions: then stimulated, versus untreated LC and LC exposed to cVLP
Description: Briefly, LC were left untreated or exposed to 10 μg of HPV16 cVLP for 1 h at 37° C. in PBS. Subsequently, the cells were incubated for 4 h in complete medium supplemented with 1000 U/ml rGM-CSF at 37° C. Then cells were treated with or without each of the imidazoquinolines and incubated for 20 h at 37° C. […] LC were irradiated (25 Gy) and mixed with autologous CD8^+ T cells isolated from PBL by positive selection using a MACS MulitSort CD8^+ isolation kit (Miltenyi Biotec). Day 7 and 14 re-stimulations were done with LC treated as indicated above. For this, the medium was supplemented with IL-2 at 50 U/ml at 48 and 96 h after re-stimulation. After 28 days, cells were pooled and tested for IFN-γ production by ELISPOT as a measurement of HPV16-E7-specific CD8^+ T cell responses. Briefly, 96-well multiscreen hemagglutinin plates (Millipore) were coated with 10 μg/ml anti-human IFN-γ in PBS overnight, washed with PBS/0.5% Tween 20, and blocked for 4 h with complete medium at 37° C./5% CO2. Then, 2.5×10^5 cells/well were incubated in the presence or absence of HPV16-E7 peptide aa 86-93 for 18 h at 37° C. […] Individual spots were counted after staining with 3-amino-9-ethyl-carbazole substrate (Sigma-Aldrich). Spots were counted using the video-imaging KS ELISPOT analysis system (Zeiss).

[4] = tested on: LC and LC exposed to HPV16 VLP; format: cell-based, human; conditions: LC, and LC exposed to HPV16 VLP and then stimulated; for IP-10, MCP-1 and RANTES (CCL5) secretion: data not shown; for IL-12p70, TNF-α, IL-6, IL-8 and MIP-1β concentrations in supernatant: versus negative controls
Description: (§1) DC and LC were harvested and washed twice with PBS. […] The cells were incubated for 1 h at 37° C., mixed occasionally, and finally placed at 37° C. for 24 h in complete medium containing 1000 U/ml rGM-CSF. LC were left untreated or exposed to HPV16 VLP at a concentration of 10 μg/10^6 cells. The cells were incubated for 1 h at 37° C., mixed occasionally, and placed at 37° C. for 24 h in complete medium containing 1000 U/ml rGM-CSF. […] DC and LC were harvested, washed, and analyzed by flow cytometry for the expression and surface markers. Additionally, untreated LC and LC exposed to HPV16 VLP were also analyzed for the expression of TLR7 and TLR8.
Supernatants were collected from LC stimulated in the imidazoquinolines activation assay and submitted to the Beckman Center for Immune Monitoring Core at the University of Southern California for cytokine and chemokine analysis. The assays were completed using Human Cytokine LINCOplex Kits (LINCO Research) and the Bio-Plex Suspension Array System (Bio-Rad).
Imidazoquinolines stimulate both an innate and an adaptive immune response. The innate immune response induced by imidazoquinolines drives the adaptive immune response into a Th1 cell-mediated response via the local cytokine and chemokine milieu generated primarily by activated macrophages and DC. Thus, Applicants wanted to determine whether selected imidazoquinolines could stimulate LC exposed to HPV16 VLP to produce a proinflammatory cytokine and chemokine profile similar to the cytokine milieu known to be generated by imidazoquinoline-activated DC. Cytokines and chemokines produced by untreated LC, LC exposed to HPV16 VLP, LC treated with each of the imidazoquinoline compounds, and LC exposed to HPV16 VLP and treated with the imidazoquinoline compounds were evaluated. Supernatant from each treatment was collected and analyzed using a human cytokine LINCOplex assay.

LC [5] = conditions: previous studies; cited from earlier work
LC [6] = conditions: allogenic MLR; Burns et al. 2000; cited from earlier work
LC [7] = conditions: Burns et al. 2000; Suzuki et al. 2000; cited from earlier work
[8] = tested on: LC and LC exposed to HPV16 VLP; format: cell-based, human; conditions: 5 μM 3M-002, 30 μM imiquimod, 30 μM resiquimod, 5 μM 3M-031, 24 h; for expression of surface markers (MHC class I, MHC class II, CD80, CD86) on LC exposed to HPV16 VLP: then treated; for expression of surface markers (MHC class I, MHC class II, CD80, CD86) on LC: LC not exposed to VLP
Description: For DC, plastic adherent cells were selected by plating 2×10^8 cells in a 175-cm^2 tissue culture flask for 2 h at 37° C. Nonadherent cells were washed away and the remaining cells were cultured for 7 days in complete medium containing 1000 U/ml rGM-CSF (Berlex) and 1000 U/ml rIL-4 (BioSource International), of which 100% was replenished on day 3 and 50% was replenished on day 6. For LC, adherent cells were cultured for 7 days in complete medium containing 1000 U/ml rGM-CSF, 1000 U/ml rIL-4, and 10 ng/ml rTGF-β1 (BioSource International), of which 100% was replenished on day 3, 50% of rGM-CSF and rIL-4 was replenished on day 6, and 100% of rTGF-β1 was replenished on days 3 and 6.
as §1
Each population of cells was harvested after the final incubation and analyzed by flow cytometry for the expression of surface markers.

[9] = tested on: LC exposed to HPV16 L1L2 VLP; format: cell-based, human; conditions: co-stimulatory and activation molecules, Th1-promoting cytokines, HPV-specific T cells
Description: LC were left untreated or exposed to HPV16 L1L2 VLP for 18 h at 37° C. […] Cell supernatants were analyzed for IL-12 p40/p70 using a Bio-plex suspension bead ELISA (BioRad, Hercules, Calif.).

LC exposed to HPV16 VLP [10] = test: CCR7 expression on LC by flow cytometry; format: cell-based, human; conditions: then treated
LC [11] = conditions: mouse model; Suzuki et al. 2000; cited from earlier work
[12] = tested on: high-risk HPV-induced vulvar intraepithelium neoplasia (VIN); conditions: van Seters et al. 2008; cited from earlier work
[13] = tested on: cervical intraepithelial neoplasia (CIN); conditions: cited from earlier work

Structure (SMILES): CCOCc1nc2c(N)nc3ccccc3c2[nH]1 [CL097]
- water solubility [1]: ≥ 20 mg/mL

Structure (SMILES): CCCc1nc2c(N)nc3ccccc3c2s1 [3M-002]
- Agonist receptor(s) (TLR7 and/or TLR8): TLR8

Structure (SMILES): CCOCc1nc2c(N)nc3ccccc3c2n1CC(C)(C)O [resiquimod]
- migration toward CCL21 (LC exposed to HPV16 VLP [2]): significantly induced the migration
- expression of surface markers (MHC class I, MHC class II, CD80, CD86) on DC (DC): induced the up-regulation of surface markers
- HPV16 E7 86-93 epitope-specific CD8+ T cell response (IFN-γ ELISPOT) [3]: initiated a statistically significant HPV16 epitope-specific response
- Agonist receptor(s) (TLR7 and/or TLR8): TLR8/7
- IP-10, MCP-1 and RANTES (CCL5) secretion [4]: highly secreted
- IL-12p70, TNF-α, IL-6, IL-8 and MIP-1β concentrations in supernatant [4]: statistically significantly elevated
- transcription of cytokine genes (TNF-α, IL-6, IL-12p40 mRNA) (LC [5]): enhanced the transcription of the genes
- allostimulatory capacity of treated LC (T cell proliferation) (LC [6]): highly increased the allostimulatory capacity of LC
- phenotypic and functional activation of LC (LC [7]): do not phenotypically but functionally activate LC
- expression of surface markers (MHC class I, MHC class II, CD80, CD86) on LC exposed to HPV16 VLP [8]: significantly induced the up-regulation of the surface markers
- expression of surface markers (MHC class I, MHC class II, CD80, CD86) on LC [8]: significantly induced the up-regulation of surface marker
- activation of HPV-exposed LC [9]: fully activated HPV treated LC
- expression of CCR7 (LC exposed to HPV16 VLP [10]): induced the up-regulation of CCR7

Structure (SMILES): CC(C)Cn1cnc2c(N)nc3ccccc3c21 [imiquimod]
- migration of LC (LC [11]): induces the migration of LC
- migration toward CCL21 (LC exposed to HPV16 VLP [2]): did not enhance CCL21-directed migration
- expression of surface markers (MHC class I, MHC class II, CD80, CD86) on DC (DC): induced the up-regulation of surface markers
- HPV16 E7 86-93 epitope-specific CD8+ T cell response (IFN-γ ELISPOT) [3]: did not induce a significant HPV16 epitope-specific immune response
- Agonist receptor(s) (TLR7 and/or TLR8): TLR7
- IP-10, MCP-1 and RANTES (CCL5) secretion [4]: comparable amounts
- IL-12p70, TNF-α, IL-6, IL-8 and MIP-1β concentrations in supernatant [4]: comparable amounts
- treatment of high-risk HPV-induced VIN [12]: successful in treating
- transcription of cytokine genes (TNF-α, IL-6, IL-12p40 mRNA) (LC [5]): enhanced the transcription of the genes
- expression of surface markers (MHC class I, MHC class II, CD80, CD86) on LC exposed to HPV16 VLP [8]: moderately increased the expression of surface markers
- expression of surface markers (MHC class I, MHC class II, CD80, CD86) on LC [8]: only a minor up-regulation of surface markers
- activation of HPV-exposed LC [9]: did not activate HPV-exposed LC
- regression of cervical intraepithelial neoplasia (CIN) ([13]; clinical trials): has not led to regression
- toxicity to the cervix ([13]; in vivo): toxic to the cervix
- expression of CCR7 (LC exposed to HPV16 VLP [10]): did not induce the expression of CCR7
